In PubChem BioAssay (NCI):
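Results reflect a 48-hour exposure of cells in 96-well plates to compound at five concentrations. TGI: total growth inhibition.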

Legend:
Assay in all cases: NCI anticancer screen, dose series, 48 h
786-0 renal = system: 786-0 renal
ACHN renal = system: ACHN renal
HCC-2998 colon = system: HCC-2998 colon
IGROV1 ovarian = system: IGROV1 ovarian
K-562 leukemia = system: K-562 leukemia
NCI-H226 lung = system: NCI-H226 lung
SK-MEL-2 melanoma = system: SK-MEL-2 melanoma
SR leukemia = system: SR leukemia
U251 CNS = system: U251 CNS

SMILES | TGI (786-0 renal) | TGI (ACHN renal) | TGI (HCC-2998 colon) | TGI (IGROV1 ovarian) | TGI (K-562 leukemia) | TGI (NCI-H226 lung) | TGI (SK-MEL-2 melanoma) | TGI (SR leukemia) | TGI (U251 CNS)
CC(C)C(Sc1nc(N)nc2nc[nH]c12)C(=O)O (centres undefined) | > 100 µM | > 100 µM | > 100 µM | > 100 µM | > 100 µM | > 100 µM | > 100 µM | > 100 µM | > 100 µM
O=C(OC1C#CCSCC#C/C=C\1)c1ccc2c(c1)C(=O)c1ccccc1C2=O (centres undefined) | – | > 100 µM | > 100 µM | > 100 µM | > 100 µM | > 100 µM | > 100 µM | > 100 µM | 55.9 µM
O=C(O)c1ccccc1Sc1ccc(C=C2NC(=S)N(c3ccccc3)C2=O)s1 | 35.8 µM | > 100 µM | > 100 µM | > 100 µM | > 100 µM | > 100 µM | > 100 µM | > 100 µM | > 100 µM
c1ccc(-c2cc(-c3ccccc3)nc(-c3ccncc3)c2)cc1 | > 100 µM | > 100 µM | > 100 µM | > 100 µM | > 100 µM | > 100 µM | > 100 µM | > 100 µM | > 100 µM
COc1ccc2nc(-c3ccc(N)cc3)sc2c1 | > 100 µM | > 100 µM | > 100 µM | > 100 µM | > 100 µM | > 100 µM | > 100 µM | > 100 µM | > 100 µM
O=[N+]([O-])c1ccc(CSC2=C(c3ccc(Cl)cc3)S/C(=C3\SC(SCc4ccc([N+](=O)[O-])cc4)=C(c4ccc(Cl)cc4)S3)S2)cc1 | > 100 µM | > 100 µM | > 100 µM | > 100 µM | > 100 µM | > 100 µM | > 100 µM | – | > 100 µM
COc1cc2c(cc1C)NC(=O)/C2=C/c1c(Cl)[nH]c2ccccc12 | 20 µM | 22.4 µM | 15.4 µM | 16.8 µM | > 100 µM | – | 8.56 µM | 23.1 µM | 16.9 µM
CCC(CCCC[C@H]1CC[C@@H]2CC(=O)C[C@H]12)OC (some centres undefined) | > 100 µM | > 100 µM | > 100 µM | > 100 µM | > 100 µM | > 100 µM | > 100 µM | > 100 µM | > 100 µM
CC[C@@]1(O)C(=O)OCc2c1cc1n(c2=O)Cc2c-1nc1ccc(N)cc1c2CC[Si](C)(C)C | < 0.0276 µM | – | 0.103 µM | 0.469 µM | > 38.2 µM | < 0.01 µM | 0.427 µM | < 0.01 µM | 0.543 µM
Cc1csc(NCc2ccc(Cl)cc2)n1 | > 100 µM | > 100 µM | – | > 100 µM | > 100 µM | > 100 µM | > 100 µM | > 100 µM | > 100 µM
CN(CCNC(=O)c1nn(C)c2c1Cc1ccccc1-2)CCNC(=O)c1nn(C)c2c1Cc1ccccc1-2 | 27.7 µM | 28.4 µM | 25.5 µM | 27.5 µM | 29.6 µM | 34.5 µM | 28.6 µM | – | 28.9 µM
CCOC(=O)c1cccc(N=NNc2cccc(C(=O)OCC)c2)c1 | 42.6 µM | > 100 µM | > 100 µM | > 100 µM | > 100 µM | > 100 µM | > 100 µM | > 100 µM | 46.6 µM
NC1CC(=O)c2c(I)sc(I)c21 (centres undefined) | > 53.4 µM | 42.1 µM | 44.2 µM | 33.1 µM | > 100 µM | 45.6 µM | 36.2 µM | 48.4 µM | 51.1 µM
O=C1CC2(CCN(Cc3ccccc3)CC2)C(=O)N1N1CCCCC1 | > 100 µM | > 100 µM | – | > 100 µM | > 100 µM | > 100 µM | > 100 µM | – | > 100 µM
N#CC1=C(N)OC2=C(CCCc3ccc([N+](=O)[O-])cc32)C1c1ccc(Cl)cc1 (centres undefined) | 23.9 µM | 46.5 µM | 52.3 µM | > 100 µM | > 100 µM | 76.3 µM | 54.7 µM | – | 28 µM
COC(=O)[C@@H]1CN(C(=O)Cc2ccccc2)C(=O)N1 | > 100 µM | > 100 µM | – | > 100 µM | > 100 µM | > 100 µM | – | > 100 µM | > 100 µM
CCc1nnc2sc(-c3ccc(-c4ccccc4[N+](=O)[O-])o3)nn12 | > 100 µM | > 100 µM | > 100 µM | > 100 µM | > 100 µM | 44 µM | 95.7 µM | 72.6 µM | > 100 µM
Cc1nc2nnc(CCCCCCCCc3nnc4nc(C)[nH]n34)n2[nH]1 | > 100 µM | > 100 µM | > 100 µM | > 100 µM | > 100 µM | > 100 µM | > 100 µM | – | > 100 µM
CC/C(CC(=O)CCC(=O)Nc1ccc(C)c(C)c1)=N\NC(=O)c1cc2ccccc2cc1O | – | > 100 µM | 43.2 µM | 57.5 µM | > 100 µM | > 100 µM | > 100 µM | 69 µM | > 100 µM
COc1cc2c(c(O)c1OC)C(O)C1CCC(=O)N1C2c1ccc2c(c1)OCO2 (centres undefined) | > 100 µM | > 100 µM | > 100 µM | > 100 µM | > 100 µM | > 100 µM | – | > 100 µM | > 100 µM
CCn1c(=O)c2nc(SC)sc2n(-c2ccccc2)c1=S | > 100 µM | > 100 µM | > 100 µM | > 100 µM | 55.1 µM | > 100 µM | > 100 µM | > 100 µM | > 100 µM
CC(=O)N(C(=O)CC(=O)N1N=C(C)C(N=Nc2cccc([N+](=O)[O-])c2)C1=O)c1ccc(Cl)cc1 (centres undefined) | > 10 µM | > 10 µM | > 10 µM | > 10 µM | > 10 µM | – | – | > 10 µM | > 10 µM
O=C(O)COc1c(Cl)cc(Cl)c(C(c2c(Cl)cc(Cl)c(OCC(=O)O)c2Cl)C(Cl)(Cl)Cl)c1Cl | > 100 µM | > 100 µM | 28.6 µM | > 100 µM | > 100 µM | 64.1 µM | 42.2 µM | – | 77.4 µM
Cc1ccc(-c2ccc3c(c2)Sc2ccccc2O3)n1C | > 100 µM | > 100 µM | 0.625 µM | 1.2 µM | > 100 µM | > 100 µM | 4.26 µM | > 100 µM | > 100 µM
